Source: paper PMC12408367 (2025)

Columns and labels:
[1] = test system: wild-type (WT) 5′UTR of KDM5C mRNA (RNA, mRNA element) UGGCGAAGGCUGCGGUACGACGGCCACACGCC; experiment: microscale thermophoresis (Monolith NT.115); conditions: DEPC water; RNA stock 40 nM; 1 mM putrescine stock, 16-step 1:2 dilution; 4PL sigmoidal fit
[2] = test system: mutant (mut) 5′UTR of KDM5C mRNA (RNA, mRNA element) UGGCGUGGGCUGCGGUACGACGGCCACACGCC; experiment: microscale thermophoresis (Monolith NT.115); conditions: DEPC water; RNA stock 40 nM; 1 mM putrescine stock (highest), 16-step 1:2 dilution

Kd [1]: 52.3 µM
binding [2]: no
SMILES: NCCCCN
